Source: patent US20150010474A1, “Compounds And Methods For Selective Imaging And/Or Ablation” (Auckland Uniservices Limited, priority 2011, published 2015)

How the values were obtained:
[1] = test system: NTR over-expressing E. coli SOS-R2; assay: Growth Inhibition assay in 58-membered NTR over-expression library; format: cell-based, Escherichia coli; conditions: 4 h incubation; 400 μM compound 67, 130 μM compound 93, 800 μM compound 97
[2] = test system: bacterial nitroreductase over-expressing E. coli strains; assay: IC50 (turbidity) in selected NTR over-expressing library strains; format: cell-based, Escherichia coli; conditions: 4 h post-challenge, serial dilution
Procedure: FIG. 2.3 illustrates the IC50 of compound 67 for selected NTR library strains (i.e. the concentration of compound 67 that yielded only 50% turbidity relative to an unchallenged control 4 h post-challenge, in replicate cultures across a serial dilution of compound 67). The strains selected were all those observed to have SOS activity above the empty plasmid control (“Empty”) in response to challenge with compound 67 as illustrated in FIG. 2(B), plus NfsB (E.c) as a negative control. For the IC50 assays, 100 μl of overnight cultures were used to inoculate 2 ml M63 minimal medium supplemented with 100 μg·ml^−1 ampicillin and 50 μM IPTG and incubated at 30° C., 200 rpm for 3.5 h. 40 μL aliquots from each culture were then added to individual wells of a sterile 384 well plate, each already containing 40 μl of ampicillin and IPTG-supplemented M63 medium and a dilution series of compound 67 as indicated on the X-axis of panel A. A. Raw growth curves. Each NTR over-expression strain was tested at least in duplicate (independent replicates), with the exception of NfsB (E.c), which was only measured once. Culture turbidity was monitored by optical density at 600 nm 4 h post-challenge. B. IC50 values calculated by comparison of the challenged cells with the unchallenged control for each strain, after subtracting the initial absorbance values (t=0 h), using SigmaPlot 10.0 (Systat Software Inc., Richmond, Calif.). Errors are 1 standard error of the mean (SEM).
(§1) FIG. 2.4 illustrates the IC50 of compound 93 for selected NTR library strains. […] B. IC50 values calculated by comparison of the challenged cells with the unchallenged control for each strain, after subtracting the initial absorbance values (t=0 h), using SigmaPlot 10.0 (Systat Software Inc., Richmond, Calif.). […]
as §1, with “2.5” for “2.4”, “97” for “93”

[3] = test system: wild-type HCT-116 cells; assay: Flow cytometry of metabolism and binding (EF5 antibody); format: cell-based, human; conditions: for Metabolism and binding by FACS, wild-type HCT-116 cells (FIG. 3): 20 μM, 2 hours, oxic conditions (21% O2, 5% CO2)
Procedure: FIG. 3 illustrates the results of flow cytometry analysis of HCT-116 cells stably expressing E. coli NfsA relative to HCT-116 wild-type cells after in vitro exposure to 20 μM of compounds 15, 93 and 67 for 2 hours. 1×10^6 cells were incubated with test compounds under oxic conditions. Samples were fixed and stained with EF5 antibody Alexa 488 ELK3.51 at 100 μg/ml. Samples were then analysed on a Becton Dickinson FACscan flow cytometer.
(§2) FIG. 4 illustrates the results of a second independent flow cytometry analysis of compound 15 and 93 metabolism and binding in wild-type HCT-116 cells, HCT-116 cells stably over-expressing cytochrome P450 reductase (CYPOR), a human one-electron reductase known to metabolise nitroheterocyclic and nitroaromatic compounds, or HCT-116 cells stably expressing the bacterial nitroreductase E. coli NfsA. 1×10^6HCT-116 cells were seeded in 6 well plates underaerobic conditions (21% O2, 5% CO2). After 2 h incubation, drug free control (wild-type HCT-116, foreground), 20 μM (wild-type HCT-116, second plot), 100 μM (wild-type HCT-116, third plot), 20 μM (HCT-116-CYPOR, forth plot), 100 μM (HCT-116-CYPOR, fifth plot) or 20 μM (HCT-116-NfsA, sixth plot) of compound 15 or 93 was added. After 2 h incubation cells were harvested and fixed with paraformaldehyde before being incubated overnight with 100 μl of 75 μg/ml EF5 CY5 conjugated antibody. Samples were then analysed on a Becton Dickinson FACscan flow cytometer.
(§3) FIG. 6 illustrates the results of flow cytometry analysis of compound 15 and 93 metabolism and binding in wild-type HCT-116 cells and HCT-116 cells stably over-expressing cytochrome P450 reductase (CYPOR), a human one-electron reductase known to metabolise nitroheterocyclic and nitroaromatic compounds. 1×10^6 HCT-116 cells were seeded in 6 well plates underanoxic conditions. After 2 h incubation, drug free control (wild-type HCT-116, foreground), 20 μM (wild-type HCT-116, second plot), 100 μM (wild-type HCT-116, third plot), 20 μM (HCT-116-CYPOR, forth plot) or 100 μM (HCT-116-CYPOR, fifth plot) of compound 15 or 93 was added. After 2 h incubation cells were harvested and fixed with paraformaldehyde before being incubated overnight with 100 μl of 75 μg/ml EF5 CY5 conjugated antibody. Samples were then analysed on a Becton Dickinson FACscan flow cytometer.

[4] = test system: HCT-116 cells stably over-expressing cytochrome P450 reductase (CYPOR); assay: as above; format: cell-based, human; conditions: 2 h
Procedure: as §2
FIG. 5 illustrates the results of flow cytometry analysis of HCT-116 cells stably over-expressing cytochrome P450 reductase (CYPOR), a human one-electron reductase known to metabolise nitroheterocyclic and nitroaromatic compounds. 1×10^6HCT-116-CYPOR cells were seeded in 6 well plates in aerobic, anoxic and 0.2% oxygen conditions designed to replicate the lower limit of pathological hypoxia observed in human tumours. After 2 h incubation, drug free control (foreground), 20 μM (middle) or 100 μM (background) of compound 15 or 67 was added. After 2 h incubation cells were harvested and fixed with paraformaldehyde before being incubated overnight with 100 μl of 75 μg/ml EF5 CY5 conjugated antibody. Samples were then analysed on a Becton Dickinson FAC scan flow cytometer.
as §3

Cc1ncc([N+](=O)[O-])n1CC(=O)NCC(F)(F)C(F)(F)F [Compound 67, 2-(2-methyl-5-nitro-1H-imidazol-1-yl)-N-(2,2,3,3,3-pentafluoropropyl)acetamide]
Reductive metabolism at the nitro moiety by NTR library members (NfsA and NfsB families) [1]: readily reductively metabolised at the nitro moiety by the majority of NfsA family members along with a subset of the NfsB family
Inhibition of bacterial cell growth in NTR over-expressing strains compared to controls [2]: Inhibition of bacterial cell growth was selectively observed
Metabolism and binding by FACS, wild-type HCT-116 cells (FIG. 3) [3]: minimal metabolism and binding
Metabolism and binding by FACS, HCT-116-CYPOR cells, 0.2% oxygen (FIG. 5) ([4]; 20 μM or 100 μM, 0.2% oxygen): negligible metabolism and binding
Metabolism and binding by FACS, HCT-116-CYPOR cells, aerobic (FIG. 5) ([4]; 20 μM or 100 μM, aerobic): negligible metabolism and binding

O=C(Cn1cnc([N+](=O)[O-])c1)NCC(F)(F)C(F)(F)F [Compound 93, 2-(4-nitro-1H-imidazol-1-yl)-N-(2,2,3,3,3-pentafluoropropyl)acetamide]
Reductive metabolism at the nitro moiety by NTR library members (NfsA and NfsB families) [1]: selectively reductively metabolised at the nitro moiety by the NfsA family
Inhibition of bacterial cell growth in NTR over-expressing strains compared to controls [2]: Inhibition of bacterial cell growth was selectively observed
Metabolism and binding by FACS, wild-type HCT-116 cells (FIG. 4) ([3]; 20 μM and 100 μM, 2 h, aerobic conditions): minimal metabolism and binding
Metabolism and binding by FACS, wild-type HCT-116 cells, anoxia (FIG. 6) ([3]; 20 μM and 100 μM, 2 h, anoxic conditions): negligible metabolism and binding
Metabolism and binding by FACS, wild-type HCT-116 cells (FIG. 3) [3]: minimal metabolism and binding
Metabolism and binding by FACS, HCT-116-CYPOR cells (FIG. 4) ([4]; 20 μM and 100 μM, aerobic conditions): minimal metabolism and binding
Metabolism and binding by FACS, HCT-116-CYPOR cells, anoxia (FIG. 6) ([4]; 20 μM and 100 μM, anoxic conditions): negligible metabolism and binding
